From ChEMBL document CHEMBL1201862, “PubChem BioAssay data set” (2004)
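Briefly, cells in 96-well plates were exposed to five compound concentrations for 48 h, and endpoints were estimated by linear interpolation. GI50 is the concentration that inhibits growth by half.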 Calls of active or inactive are those of the source. Cut-off read from the data, not from the text of the source: active = GI50 up to about 1.1 µM and inactive = higher.

How the values were obtained:
Assay in all cases: DTP human tumour cell line panel, 48 h
KM12 = tested on: KM12
SF-295 = tested on: SF-295
DMS-273 = tested on: DMS-273
SF-539 = tested on: SF-539
MOLT-4 = tested on: MOLT-4
LOX IMVI = tested on: LOX IMVI
HCT-15 = tested on: HCT-15
CAKI-1 = tested on: CAKI-1
A549 = tested on: A549
DLD-1 = tested on: DLD-1
NCI-H522 = tested on: NCI-H522
KM-20L2 = tested on: KM-20L2
HOP-62 = tested on: HOP-62
SW-620 = tested on: SW-620
XF498 = tested on: XF498
RXF 631 = tested on: RXF 631
HCT-116 = tested on: HCT-116
RXF 393 = tested on: RXF 393
UACC-62 = tested on: UACC-62
EKVX = tested on: EKVX
SNB-78 = tested on: SNB-78
TK-10 = tested on: TK-10
786-0 = tested on: 786-0
SK-MEL-2 = tested on: SK-MEL-2
SR = tested on: SR
U-251 = tested on: U-251
Malme-3M = tested on: Malme-3M
SK-MEL-28 = tested on: SK-MEL-28
UO-31 = tested on: UO-31
K562 = tested on: K562
OVCAR-4 = tested on: OVCAR-4
M19-MEL = tested on: M19-MEL
SK-MEL-5 = tested on: SK-MEL-5
HOP-18 = tested on: HOP-18
SF-268 = tested on: SF-268
ACHN = tested on: ACHN
NCI-H23 = tested on: NCI-H23
OVCAR-8 = tested on: OVCAR-8
SNB-19 = tested on: SNB-19
IGROV-1 = tested on: IGROV-1
CCRF-CEM = tested on: CCRF-CEM
COLO 205 = tested on: COLO 205
OVCAR-3 = tested on: OVCAR-3
DMS-114 = tested on: DMS-114
HCC 2998 = tested on: HCC 2998
SN12C = tested on: SN12C
OVCAR-5 = tested on: OVCAR-5
SNB-75 = tested on: SNB-75
NCI-H226 = tested on: NCI-H226
M14 = tested on: M14
RPMI-8226 = tested on: RPMI-8226
HL-60 = tested on: HL-60
LXFL 529 = tested on: LXFL 529
HOP-92 = tested on: HOP-92
SK-OV-3 = tested on: SK-OV-3
NCI-H460 = tested on: NCI-H460
UACC-257 = tested on: UACC-257
HT-29 = tested on: HT-29
A498 = tested on: A498

O=C(c1ccccc1)c1ccc2cccc(O)c2n1
GI50 (KM12): 74.5 µM (inactive) | GI50 (SF-295): 18.7 µM (inactive) | GI50 (DMS-273): 28.4 µM (inactive) | GI50 (SF-539): 32.6 µM (inactive) | GI50 (MOLT-4): 5.27 µM (inactive) | GI50 (LOX IMVI): 11.9 µM (inactive) | GI50 (HCT-15): 23.6 µM | GI50 (CAKI-1): 76.4 µM (inactive) | GI50 (A549): 33 µM (inactive) | GI50 (DLD-1): 27 µM (inactive) | GI50 (NCI-H522): 8.38 µM (inactive) | GI50 (KM-20L2): 35.6 µM (inactive) | GI50 (HOP-62): 52.4 µM (inactive) | GI50 (SW-620): 13.5 µM (inactive) | GI50 (XF498): 29.2 µM (inactive) | GI50 (RXF 631): 55.1 µM (inactive) | GI50 (HCT-116): 6.14 µM (inactive) | GI50 (RXF 393): 16.4 µM (inactive) | GI50 (UACC-62): 33.1 µM (inactive) | GI50 (EKVX): 24.4 µM (inactive) | GI50 (SNB-78): 46.5 µM (inactive) | GI50 (TK-10): 94.8 µM (inactive) | GI50 (786-0): 15.8 µM (inactive) | GI50 (SK-MEL-2): 47.6 µM (inactive) | GI50 (SR): 15.4 µM (inactive) | GI50 (U-251): 18.5 µM (inactive) | GI50 (Malme-3M): 36.1 µM (inactive) | GI50 (SK-MEL-28): 29.3 µM (inactive) | GI50 (UO-31): 34.4 µM (inactive) | GI50 (K562): 9.23 µM (inactive) | GI50 (OVCAR-4): 67.8 µM (inactive) | GI50 (M19-MEL): 28.8 µM (inactive) | GI50 (SK-MEL-5): 22.9 µM (inactive) | GI50 (HOP-18): 36.1 µM (inactive) | GI50 (SF-268): 27.5 µM (inactive) | GI50 (ACHN): 37.5 µM (inactive) | GI50 (NCI-H23): 22.6 µM (inactive) | GI50 (OVCAR-8): 23.6 µM (inactive) | GI50 (SNB-19): 31.1 µM (inactive) | GI50 (IGROV-1): 93.1 µM (inactive) | GI50 (CCRF-CEM): 1.19 µM (inactive) | GI50 (COLO 205): 37.5 µM (inactive) | GI50 (OVCAR-3): 50.8 µM (inactive) | GI50 (DMS-114): 10.9 µM (inactive) | GI50 (HCC 2998): 40.1 µM (inactive) | GI50 (SN12C): 38.8 µM (inactive) | GI50 (OVCAR-5): 60.8 µM (inactive) | GI50 (SNB-75): 30.5 µM (inactive) | GI50 (NCI-H226): 38.5 µM (inactive) | GI50 (M14): 13.8 µM (inactive) | GI50 (RPMI-8226): 10.6 µM (inactive)

CCOC(=O)NC(=O)c1cn(CCCOC(=O)CCCCCCCCCCC(=O)OCCCn2cc(C(=O)NC(=O)OCC)c(=O)[nH]c2=O)c(=O)[nH]c1=O
GI50 (KM12): > 100 µM (inactive) | GI50 (SF-295): > 100 µM (inactive) | GI50 (SF-539): > 100 µM (inactive) | GI50 (MOLT-4): > 100 µM (inactive) | GI50 (LOX IMVI): > 100 µM (inactive) | GI50 (A549): > 100 µM (inactive) | GI50 (DLD-1): > 100 µM (inactive) | GI50 (HL-60): > 100 µM (inactive) | GI50 (KM-20L2): > 100 µM (inactive) | GI50 (LXFL 529): > 100 µM (inactive) | GI50 (HOP-62): > 100 µM (inactive) | GI50 (SW-620): > 100 µM (inactive) | GI50 (XF498): > 100 µM (inactive) | GI50 (HOP-92): > 100 µM (inactive) | GI50 (RXF 631): 37.3 µM (inactive) | GI50 (HCT-116): > 100 µM (inactive) | GI50 (RXF 393): > 10 µM (inactive) | GI50 (UACC-62): > 100 µM (inactive) | GI50 (SK-OV-3): 42.7 µM (inactive) | GI50 (EKVX): > 100 µM (inactive) | GI50 (SNB-78): > 100 µM (inactive) | GI50 (TK-10): > 100 µM (inactive) | GI50 (786-0): > 100 µM (inactive) | GI50 (SK-MEL-2): > 100 µM (inactive) | GI50 (SR): > 100 µM (inactive) | GI50 (U-251): > 100 µM (inactive) | GI50 (Malme-3M): > 100 µM (inactive) | GI50 (SK-MEL-28): > 100 µM (inactive) | GI50 (UO-31): > 100 µM (inactive) | GI50 (K562): > 100 µM (inactive) | GI50 (OVCAR-4): > 100 µM (inactive) | GI50 (M19-MEL): > 100 µM (inactive) | GI50 (SK-MEL-5): > 100 µM (inactive) | GI50 (HOP-18): > 100 µM (inactive) | GI50 (SF-268): > 100 µM (inactive) | GI50 (ACHN): > 100 µM (inactive) | GI50 (NCI-H23): > 100 µM (inactive) | GI50 (OVCAR-8): > 100 µM (inactive) | GI50 (NCI-H460): > 100 µM (inactive) | GI50 (UACC-257): > 100 µM (inactive) | GI50 (SNB-19): 49 µM (inactive) | GI50 (IGROV-1): > 100 µM (inactive) | GI50 (CCRF-CEM): > 100 µM (inactive) | GI50 (COLO 205): > 100 µM (inactive) | GI50 (OVCAR-3): > 100 µM (inactive) | GI50 (HT-29): > 100 µM (inactive) | GI50 (HCC 2998): > 100 µM (inactive) | GI50 (SN12C): > 100 µM (inactive) | GI50 (OVCAR-5): > 100 µM (inactive) | GI50 (NCI-H226): > 100 µM (inactive) | GI50 (M14): > 100 µM (inactive) | GI50 (RPMI-8226): > 100 µM (inactive)

O=CN/C=C/c1ccc(O)c(O)c1
GI50 (KM12): > 100 µM (inactive) | GI50 (SF-295): > 100 µM (inactive) | GI50 (DMS-273): > 100 µM (inactive) | GI50 (SF-539): > 100 µM (inactive) | GI50 (MOLT-4): > 100 µM (inactive) | GI50 (LOX IMVI): > 100 µM (inactive) | GI50 (HCT-15): > 100 µM | GI50 (CAKI-1): > 100 µM (inactive) | GI50 (A549): > 100 µM (inactive) | GI50 (DLD-1): > 100 µM (inactive) | GI50 (NCI-H522): 52.1 µM (inactive) | GI50 (HL-60): 55 µM (inactive) | GI50 (KM-20L2): > 100 µM (inactive) | GI50 (LXFL 529): > 100 µM (inactive) | GI50 (HOP-62): > 100 µM (inactive) | GI50 (SW-620): > 100 µM (inactive) | GI50 (XF498): > 100 µM (inactive) | GI50 (HOP-92): > 100 µM (inactive) | GI50 (RXF 631): > 100 µM (inactive) | GI50 (HCT-116): > 100 µM (inactive) | GI50 (RXF 393): > 100 µM (inactive) | GI50 (UACC-62): > 100 µM (inactive) | GI50 (SK-OV-3): > 100 µM (inactive) | GI50 (EKVX): > 100 µM (inactive) | GI50 (SNB-78): > 100 µM (inactive) | GI50 (TK-10): > 100 µM (inactive) | GI50 (786-0): > 100 µM (inactive) | GI50 (SK-MEL-2): > 100 µM (inactive) | GI50 (U-251): > 100 µM (inactive) | GI50 (Malme-3M): > 100 µM (inactive) | GI50 (SK-MEL-28): > 100 µM (inactive) | GI50 (UO-31): > 100 µM (inactive) | GI50 (K562): > 100 µM (inactive) | GI50 (OVCAR-4): > 100 µM (inactive) | GI50 (M19-MEL): > 100 µM (inactive) | GI50 (SF-268): > 100 µM (inactive) | GI50 (ACHN): > 100 µM (inactive) | GI50 (NCI-H23): > 100 µM (inactive) | GI50 (OVCAR-8): > 100 µM (inactive) | GI50 (NCI-H460): > 100 µM (inactive) | GI50 (UACC-257): > 100 µM (inactive) | GI50 (SNB-19): > 100 µM (inactive) | GI50 (IGROV-1): > 100 µM (inactive) | GI50 (CCRF-CEM): > 100 µM (inactive) | GI50 (COLO 205): > 100 µM (inactive) | GI50 (OVCAR-3): > 100 µM (inactive) | GI50 (HT-29): > 100 µM (inactive) | GI50 (DMS-114): > 100 µM (inactive) | GI50 (HCC 2998): > 100 µM (inactive) | GI50 (A498): > 100 µM (inactive) | GI50 (SN12C): > 100 µM (inactive) | GI50 (OVCAR-5): > 100 µM (inactive) | GI50 (SNB-75): 59.8 µM (inactive) | GI50 (NCI-H226): > 100 µM (inactive) | GI50 (M14): > 100 µM (inactive) | GI50 (RPMI-8226): > 100 µM (inactive)
